Data: ChEMBL document CHEMBL1158281, “Montiporic acids A and B, cytotoxic and antimicrobial polyacetylene carboxylic acids from eggs of the scleractinian coral Montipora digitata” (J Nat Prod, 1996)
In brackets after ≈: the same amount, converted by molar mass. Activity calls are given as the source filed them. No cut-off for these calls is given here.

Assays:
P388 = assay: Cytotoxicity against mouse P388 cells; type: functional, cell-based
Escherichia coli = assay: Antibacterial activity against Escherichia coli; type: functional, organism-based

SMILES | IC50 (P388) [µg/mL] | Activity (Escherichia coli)
CCCCCCCC#CC#CCOCC(=O)O [MONOTIPORIC ACID A] | 5 (≈ 21.2 µM) | Active
C=CCCCCCCCC#CC#CCOCC(=O)O [MONOTIPORIC ACID B] | 12 (≈ 45.7 µM) | Active
